From ChEMBL document CHEMBL3525928 (Drug Metab Dispos, 2011)

Assays:
Type in all cases: ADME, cell-based
OATP1B3 [1] = biological target: T1, OATP1B3 (Homo sapiens, UniProt Q9NPD5); experiment: Drug uptake ratio assessed as enzyme-mediated uptake in HEK293 cells expressing human OATP1B3 at 10 uM at 37 degC for 3 mins cells pretreated with sodium butyrate by liquid scintillation spectroscopy relative to wild type
T1 sequence (Q9NPD5 whole entry): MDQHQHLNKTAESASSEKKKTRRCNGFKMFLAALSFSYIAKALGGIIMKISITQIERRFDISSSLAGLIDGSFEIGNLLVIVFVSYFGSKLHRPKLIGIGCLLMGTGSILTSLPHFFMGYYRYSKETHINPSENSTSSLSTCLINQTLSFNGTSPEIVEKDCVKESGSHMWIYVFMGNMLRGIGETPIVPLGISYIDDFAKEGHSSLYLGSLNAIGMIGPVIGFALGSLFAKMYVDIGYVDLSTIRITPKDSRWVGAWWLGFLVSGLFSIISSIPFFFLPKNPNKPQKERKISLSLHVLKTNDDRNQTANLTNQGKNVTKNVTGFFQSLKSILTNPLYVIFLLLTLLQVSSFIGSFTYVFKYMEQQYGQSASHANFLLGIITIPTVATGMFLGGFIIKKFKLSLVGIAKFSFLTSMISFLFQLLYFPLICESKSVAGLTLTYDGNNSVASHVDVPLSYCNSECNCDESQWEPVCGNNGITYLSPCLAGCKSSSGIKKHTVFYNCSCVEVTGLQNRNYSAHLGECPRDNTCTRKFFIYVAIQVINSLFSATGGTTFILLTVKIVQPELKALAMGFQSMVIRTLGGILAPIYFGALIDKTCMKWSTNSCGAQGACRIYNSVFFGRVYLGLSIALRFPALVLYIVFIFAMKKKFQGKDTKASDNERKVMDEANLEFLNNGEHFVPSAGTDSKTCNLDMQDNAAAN

OATP1B3 [2] = biological target: T1, OATP1B3; experiment: Drug uptake ratio assessed as enzyme-mediated uptake in HEK293 cells expressing human OATP1B3 at 1 uM at 37 degC for 3 mins by liquid scintillation spectroscopy relative to wild type
OATP1B3 [3] = biological target: T1, OATP1B3; experiment: Drug uptake ratio assessed as enzyme-mediated uptake in HEK293 cells expressing human OATP1B3 at 10 uM at 37 degC for 3 mins by liquid scintillation spectroscopy relative to wild type
OATP1B3 [4] = biological target: T1, OATP1B3; experiment: Drug uptake ratio assessed as enzyme-mediated uptake in HEK293 cells expressing human OATP1B3 at 1 uM at 37 degC for 3 mins cells pretreated with sodium butyrate by liquid scintillation spectroscopy relative to wild type
OATP2B1 [5] = biological target: T2, OATP2B1 (Homo sapiens, UniProt O94956); experiment: Drug uptake ratio assessed as enzyme-mediated uptake in HEK293 cells expressing human OATP2B1 at 1 uM at 37 degC for 3 mins by liquid scintillation spectroscopy relative to wild type
T2 sequence (O94956 whole entry): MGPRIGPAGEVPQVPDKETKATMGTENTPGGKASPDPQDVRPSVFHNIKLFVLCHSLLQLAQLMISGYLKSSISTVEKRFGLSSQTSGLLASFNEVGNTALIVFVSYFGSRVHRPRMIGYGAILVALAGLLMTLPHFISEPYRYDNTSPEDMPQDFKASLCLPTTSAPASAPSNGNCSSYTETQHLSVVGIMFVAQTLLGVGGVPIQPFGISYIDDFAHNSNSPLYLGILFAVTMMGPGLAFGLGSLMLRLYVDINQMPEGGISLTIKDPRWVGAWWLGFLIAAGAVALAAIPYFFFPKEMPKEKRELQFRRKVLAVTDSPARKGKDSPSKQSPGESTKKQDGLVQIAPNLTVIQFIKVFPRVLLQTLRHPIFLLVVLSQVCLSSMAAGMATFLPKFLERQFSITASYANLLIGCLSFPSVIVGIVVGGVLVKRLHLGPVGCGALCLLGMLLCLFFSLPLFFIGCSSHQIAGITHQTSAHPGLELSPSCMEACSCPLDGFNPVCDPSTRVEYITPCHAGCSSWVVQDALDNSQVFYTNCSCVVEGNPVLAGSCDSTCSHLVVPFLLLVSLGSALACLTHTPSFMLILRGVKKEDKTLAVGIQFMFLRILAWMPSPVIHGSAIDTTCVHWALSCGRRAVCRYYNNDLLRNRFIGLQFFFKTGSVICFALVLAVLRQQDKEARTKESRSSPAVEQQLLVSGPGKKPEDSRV

OATP1B1 [6] = biological target: T3, OATP1B1 (Homo sapiens, UniProt Q9Y6L6); experiment: Drug uptake ratio assessed as enzyme-mediated uptake in HEK293 cells expressing human OATP1B1 at 10 uM at 37 degC for 3 mins by liquid scintillation spectroscopy relative to wild type
T3 sequence (Q9Y6L6 whole entry): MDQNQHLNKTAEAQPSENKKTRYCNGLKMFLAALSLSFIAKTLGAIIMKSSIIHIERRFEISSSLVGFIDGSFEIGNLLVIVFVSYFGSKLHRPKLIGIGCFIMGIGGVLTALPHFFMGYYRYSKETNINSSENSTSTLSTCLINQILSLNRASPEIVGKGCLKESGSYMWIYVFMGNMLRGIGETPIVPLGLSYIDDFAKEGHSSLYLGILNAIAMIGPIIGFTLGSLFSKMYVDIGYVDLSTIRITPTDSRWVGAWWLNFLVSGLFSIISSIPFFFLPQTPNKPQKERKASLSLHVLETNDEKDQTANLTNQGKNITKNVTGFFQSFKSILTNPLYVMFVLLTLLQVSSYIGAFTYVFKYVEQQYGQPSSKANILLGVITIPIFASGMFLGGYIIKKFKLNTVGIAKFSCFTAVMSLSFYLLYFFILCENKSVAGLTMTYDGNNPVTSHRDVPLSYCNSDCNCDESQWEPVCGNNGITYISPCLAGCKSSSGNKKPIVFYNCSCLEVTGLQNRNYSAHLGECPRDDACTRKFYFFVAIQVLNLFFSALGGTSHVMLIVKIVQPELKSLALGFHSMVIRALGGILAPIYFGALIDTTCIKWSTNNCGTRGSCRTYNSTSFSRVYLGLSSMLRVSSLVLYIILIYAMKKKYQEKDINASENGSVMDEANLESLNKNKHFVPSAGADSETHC

OATP1B1 [7] = biological target: T3, OATP1B1; experiment: Drug uptake ratio assessed as enzyme-mediated uptake in HEK293 cells expressing human OATP1B1 at 1 uM at 37 degC for 3 mins by liquid scintillation spectroscopy relative to wild type
OATP2B1 [8] = biological target: T2, OATP2B1; experiment: Drug uptake ratio assessed as enzyme-mediated uptake in HEK293 cells expressing human OATP2B1 at 10 uM at 37 degC for 3 mins by liquid scintillation spectroscopy relative to wild type

| Structure (SMILES) | uptake ratio at 0.05 h, 10 µM (OATP1B3 [1]) | uptake ratio at 0.05 h, 1 µM (OATP1B3 [2]) | uptake ratio at 0.05 h, 10 µM (OATP1B3 [3]) | uptake ratio at 0.05 h, 1 µM (OATP1B3 [4]) | uptake ratio at 0.05 h, 1 µM (OATP2B1 [5]) | uptake ratio at 0.05 h, 10 µM (OATP1B1 [6]) | uptake ratio at 0.05 h, 1 µM (OATP1B1 [7]) | uptake ratio at 0.05 h, 10 µM (OATP2B1 [8]) |
| --- | --- | --- | --- | --- | --- | --- | --- | --- |
| C[C@]12CC[C@@H]3c4ccc(O)cc4CC[C@H]3[C@@H]1CC[C@@H]2O[C@@H]1O[C@H](C(=O)O)[C@@H](O)[C@H](O)[C@H]1O [ESTRADIOL 17B GLUCURONIDE] | 78 | 87 | 116 | 74 |  |  |  |  |
| C[C@]12CC[C@@H]3c4ccc(OS(=O)(=O)O)cc4CC[C@H]3[C@@H]1CCC2=O [ESTRONE SULFURIC ACID] |  |  |  |  | 44 | 2.2 | 6.7 | 50 |
| CC(C)c1nc(N(C)S(C)(=O)=O)nc(-c2ccc(F)cc2)c1/C=C/[C@@H](O)C[C@@H](O)CC(=O)O [ROSUVASTATIN] | 25 | 35 | 39 | 16 | 6 | 1.9 | 3.4 | 6.3 |
